Source: PubChem BioAssay (NCI)
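Results reflect a 48-hour exposure of cells in 96-well plates to compound at five concentrations. TGI: total growth inhibition.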

Tests used:
Assay in all cases: growth of human tumour cells (NCI), 48 h
SF-268 CNS = system: SF-268 CNS
HCT-116 colon = system: HCT-116 colon
NCI-H226 lung = system: NCI-H226 lung
SK-MEL-2 melanoma = system: SK-MEL-2 melanoma
MDA-MB-231 breast = system: MDA-MB-231 breast
UACC-257 melanoma = system: UACC-257 melanoma
MDA-MB-435 = system: MDA-MB-435
T-47D breast = system: T-47D breast
K-562 leukemia = system: K-562 leukemia
OVCAR-5 ovarian = system: OVCAR-5 ovarian
M14 melanoma = system: M14 melanoma
SR leukemia = system: SR leukemia
SN12C renal = system: SN12C renal
BT-549 breast = system: BT-549 breast
EKVX NSCLC = system: EKVX NSCLC
IGROV1 ovarian = system: IGROV1 ovarian
MCF7 breast = system: MCF7 breast
COLO 205 colon = system: COLO 205 colon
LOX IMVI melanoma = system: LOX IMVI melanoma
RXF 393 renal = system: RXF 393 renal
KM12 colon = system: KM12 colon
HS 578T breast = system: HS 578T breast
NCI-H23 lung = system: NCI-H23 lung
NCI-H460 lung = system: NCI-H460 lung
OVCAR-8 ovarian = system: OVCAR-8 ovarian
SF-295 CNS = system: SF-295 CNS
MOLT-4 leukemia = system: MOLT-4 leukemia
SK-MEL-5 melanoma = system: SK-MEL-5 melanoma
HCT-15 colon = system: HCT-15 colon
PC-3 prostate = system: PC-3 prostate
A549 NSCLC = system: A549 NSCLC
SK-OV-3 ovarian = system: SK-OV-3 ovarian
SF-539 CNS = system: SF-539 CNS
RPMI-8226 leukemia = system: RPMI-8226 leukemia
UO-31 renal = system: UO-31 renal
TK-10 renal = system: TK-10 renal
MDA-N = system: MDA-N
786-0 renal = system: 786-0 renal
DU-145 prostate = system: DU-145 prostate
CCRF-CEM leukemia = system: CCRF-CEM leukemia
HOP-92 NSCLC = system: HOP-92 NSCLC
U251 CNS = system: U251 CNS
A498 renal = system: A498 renal
HT29 colon = system: HT29 colon
NCI/ADR-RES ovarian = system: NCI/ADR-RES ovarian
ACHN renal = system: ACHN renal
NCI-H522 lung = system: NCI-H522 lung
OVCAR-4 ovarian = system: OVCAR-4 ovarian
SW-620 colon = system: SW-620 colon
SNB-19 CNS = system: SNB-19 CNS
CAKI-1 renal = system: CAKI-1 renal
OVCAR-3 ovarian = system: OVCAR-3 ovarian
HCC-2998 colon = system: HCC-2998 colon
MALME-3M melanoma = system: MALME-3M melanoma
UACC-62 melanoma = system: UACC-62 melanoma
HOP-62 NSCLC = system: HOP-62 NSCLC
HL-60(TB) leukemia = system: HL-60(TB) leukemia
SK-MEL-28 melanoma = system: SK-MEL-28 melanoma

CCOC(=O)Nn1c(C)nnc1-c1ccccc1
TGI (SF-268 CNS): > 100 µM
TGI (HCT-116 colon): > 100 µM
TGI (NCI-H226 lung): > 100 µM
TGI (SK-MEL-2 melanoma): > 100 µM
TGI (MDA-MB-231 breast): > 100 µM
TGI (UACC-257 melanoma): > 100 µM
TGI (MDA-MB-435): > 100 µM
TGI (T-47D breast): > 100 µM
TGI (K-562 leukemia): > 100 µM
TGI (OVCAR-5 ovarian): > 100 µM
TGI (M14 melanoma): > 100 µM
TGI (SR leukemia): > 100 µM
TGI (SN12C renal): > 100 µM
TGI (BT-549 breast): > 100 µM
TGI (EKVX NSCLC): > 100 µM
TGI (IGROV1 ovarian): > 100 µM
TGI (MCF7 breast): > 100 µM
TGI (COLO 205 colon): > 100 µM
TGI (LOX IMVI melanoma): > 100 µM
TGI (RXF 393 renal): > 100 µM
TGI (KM12 colon): > 100 µM
TGI (HS 578T breast): > 100 µM
TGI (NCI-H23 lung): > 100 µM
TGI (NCI-H460 lung): > 100 µM
TGI (OVCAR-8 ovarian): > 100 µM
TGI (SF-295 CNS): > 100 µM
TGI (MOLT-4 leukemia): > 100 µM
TGI (SK-MEL-5 melanoma): > 100 µM
TGI (HCT-15 colon): > 100 µM
TGI (PC-3 prostate): > 100 µM
TGI (A549 NSCLC): > 100 µM
TGI (SK-OV-3 ovarian): > 100 µM
TGI (SF-539 CNS): > 100 µM
TGI (RPMI-8226 leukemia): > 100 µM
TGI (UO-31 renal): > 100 µM
TGI (TK-10 renal): > 100 µM
TGI (MDA-N): > 100 µM
TGI (786-0 renal): > 100 µM
TGI (DU-145 prostate): > 100 µM
TGI (CCRF-CEM leukemia): > 100 µM
TGI (HOP-92 NSCLC): > 100 µM
TGI (U251 CNS): > 100 µM
TGI (A498 renal): > 100 µM
TGI (HT29 colon): > 100 µM
TGI (NCI/ADR-RES ovarian): > 100 µM
TGI (ACHN renal): > 100 µM
TGI (NCI-H522 lung): > 100 µM
TGI (OVCAR-4 ovarian): > 100 µM
TGI (SW-620 colon): > 100 µM
TGI (SNB-19 CNS): > 100 µM
TGI (CAKI-1 renal): > 100 µM
TGI (OVCAR-3 ovarian): > 100 µM
TGI (HCC-2998 colon): > 100 µM
TGI (MALME-3M melanoma): > 100 µM
TGI (UACC-62 melanoma): > 100 µM

N=c1n(C(=O)N2CCCC2)c2cc(Cl)ccc2n1C1=NCCN1
TGI (SF-268 CNS): > 100 µM
TGI (HOP-62 NSCLC): > 100 µM
TGI (HCT-116 colon): > 100 µM
TGI (NCI-H226 lung): > 100 µM
TGI (SK-MEL-2 melanoma): > 100 µM
TGI (MDA-MB-231 breast): > 100 µM
TGI (UACC-257 melanoma): > 100 µM
TGI (MDA-MB-435): > 100 µM
TGI (T-47D breast): 98.2 µM
TGI (K-562 leukemia): > 100 µM
TGI (OVCAR-5 ovarian): > 100 µM
TGI (M14 melanoma): > 100 µM
TGI (SR leukemia): > 100 µM
TGI (SN12C renal): > 100 µM
TGI (BT-549 breast): > 100 µM
TGI (EKVX NSCLC): > 100 µM
TGI (IGROV1 ovarian): > 100 µM
TGI (MCF7 breast): > 100 µM
TGI (COLO 205 colon): > 100 µM
TGI (LOX IMVI melanoma): > 100 µM
TGI (RXF 393 renal): > 100 µM
TGI (KM12 colon): > 100 µM
TGI (HS 578T breast): > 100 µM
TGI (NCI-H460 lung): > 100 µM
TGI (OVCAR-8 ovarian): > 100 µM
TGI (SF-295 CNS): > 100 µM
TGI (MOLT-4 leukemia): > 100 µM
TGI (SK-MEL-5 melanoma): > 100 µM
TGI (HCT-15 colon): > 100 µM
TGI (PC-3 prostate): > 100 µM
TGI (A549 NSCLC): > 100 µM
TGI (SK-OV-3 ovarian): > 100 µM
TGI (SF-539 CNS): > 100 µM
TGI (RPMI-8226 leukemia): > 100 µM
TGI (TK-10 renal): > 100 µM
TGI (MDA-N): > 100 µM
TGI (HL-60(TB) leukemia): > 100 µM
TGI (786-0 renal): > 100 µM
TGI (DU-145 prostate): > 100 µM
TGI (CCRF-CEM leukemia): > 100 µM
TGI (HOP-92 NSCLC): > 100 µM
TGI (U251 CNS): > 100 µM
TGI (A498 renal): > 100 µM
TGI (HT29 colon): > 100 µM
TGI (NCI/ADR-RES ovarian): > 100 µM
TGI (ACHN renal): > 100 µM
TGI (NCI-H522 lung): > 100 µM
TGI (OVCAR-4 ovarian): > 100 µM
TGI (SK-MEL-28 melanoma): > 100 µM
TGI (SW-620 colon): > 100 µM
TGI (SNB-19 CNS): > 100 µM
TGI (CAKI-1 renal): > 100 µM
TGI (OVCAR-3 ovarian): > 100 µM
TGI (HCC-2998 colon): > 100 µM
TGI (MALME-3M melanoma): > 100 µM
TGI (UACC-62 melanoma): > 100 µM
